ChEMBL document CHEMBL1201861, “Genomics of Drug Sensitity in Cancer screening data, Wellcome Trust Sanger Institute”

Experiments:
Assay in all cases: cells
Settings in all cases: Homo sapiens
COLO-792 = format: functional, cell-based
Description: SANGER: Inhibition of human COLO-792 cell growth in a cell viability assay.

COR-L105 = format: functional, cell-based;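 note: cell growth inhibition determined with a viability assay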
Description: SANGER: Inhibition of human COR-L105 cell growth in a cell viability assay.

ChaGo-K-1 = format: functional, cell-based;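 note: growth inhibition of ChaGo-K-1 cells, read out with a cell viability assay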
Description: SANGER: Inhibition of human ChaGo-K-1 cell growth in a cell viability assay.

D-392MG = format: functional, cell-based
DBTRG-05MG = format: functional, cell-based;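 note: cell viability assay measuring growth inhibition of human DBTRG-05MG cells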
Description: SANGER: Inhibition of human DBTRG-05MG cell growth in a cell viability assay.

Detroit 562 = format: functional, cell-based;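 note: growth inhibition of human Detroit 562 cells, read out by a cell viability assay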
Description: SANGER: Inhibition of human Detroit562 cell growth in a cell viability assay.

EGI-1 = format: functional, cell-based;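 note: cell viability readout used to gauge growth inhibition of EGI-1 cells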
Description: SANGER: Inhibition of human EGI-1 cell growth in a cell viability assay.

ESS-1 = format: functional, cell-based;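 note: growth inhibition of human ESS-1 cells, read out by a cell viability assay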
Description: SANGER: Inhibition of human ESS-1 cell growth in a cell viability assay.

FaDu = format: functional, cell-based;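 note: cell viability readout of growth inhibition in FaDu cells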
Description: SANGER: Inhibition of human FADU cell growth in a cell viability assay.

G-402 = format: functional, cell-based
Description: SANGER: Inhibition of human G-402 cell growth in a cell viability assay.

GAMG = format: functional, cell-based;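 note: cell growth inhibition measured by a viability assay in the GAMG human cell line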
Description: SANGER: Inhibition of human GAMG cell growth in a cell viability assay.

HCC1954 = format: functional, cell-based;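 note: growth inhibition of human HCC1954 cells, read out with a cell viability assay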
Description: SANGER: Inhibition of human HCC1954 cell growth in a cell viability assay.

HEC-1 = format: functional, cell-based;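 note: growth inhibition of the cell line, read out with a cell viability assay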
Description: SANGER: Inhibition of human HEC-1 cell growth in a cell viability assay.

HOS = format: functional, cell-based;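 note: growth inhibition of human HOS cells, read out with a cell viability assay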
Description: SANGER: Inhibition of human HOS cell growth in a cell viability assay.

HuP-T4 = format: functional, cell-based;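 note: cell viability assay measuring how much HuP-T4 cell growth is inhibited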
Description: SANGER: Inhibition of human HuP-T4 cell growth in a cell viability assay.

JEG-3 = format: functional, cell-based;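 note: growth inhibition of human JEG-3 cells, read out with a cell viability assay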
Description: SANGER: Inhibition of human JEG-3 cell growth in a cell viability assay.

KYSE-450 = format: functional, cell-based;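 note: cell growth inhibition measured by a viability assay in human KYSE-450 cells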
Description: SANGER: Inhibition of human KYSE-450 cell growth in a cell viability assay.

M14 = format: functional, cell-based;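 note: growth inhibition of M14 cells, read out with a cell viability assay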
Description: SANGER: Inhibition of human M14 cell growth in a cell viability assay.

MDA-MB-231 = format: functional, cell-based
Description: SANGER: Inhibition of human MDA-MB-231 cell growth in a cell viability assay.

MDA-MB-415 = format: functional, cell-based
MHH-ES-1 = format: functional, cell-based;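 note: cell growth inhibition measured by a cell viability assay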
Description: SANGER: Inhibition of human MHH-ES-1 cell growth in a cell viability assay.

MKN-45 = format: functional, cell-based;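 note: growth inhibition of human MKN-45 cells, measured with a cell viability assay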
Description: SANGER: Inhibition of human MKN45 cell growth in a cell viability assay.

MOLT-13 = format: functional, cell-based;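 note: IC50 for suppression of MOLT-13 cell growth, read out with a cell viability assay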
Description: SANGER: Inhibition of human MOLT-13 cell growth in a cell viability assay.

NCI-H1437 = format: functional, cell-based;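 note: growth inhibition of human NCI-H1437 cells, read out by a cell viability assay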
Description: SANGER: Inhibition of human NCI-H1437 cell growth in a cell viability assay.

NCI-H1703 = format: functional, cell-based;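 note: growth inhibition of NCI-H1703 cells, read out via a cell viability assay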
Description: SANGER: Inhibition of human NCI-H1703 cell growth in a cell viability assay.

NCI-H2030 = format: functional, cell-based;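 note: growth inhibition of human NCI-H2030 cells, read out by a cell viability assay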
Description: SANGER: Inhibition of human NCI-H2030 cell growth in a cell viability assay.

NCI-H28 = format: functional, cell-based;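 note: growth inhibition of human NCI-H28 cells, read out as cell viability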
Description: SANGER: Inhibition of human NCI-H28 cell growth in a cell viability assay.

NCI-H727 = format: functional, cell-based;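 note: growth inhibition of human NCI-H727 cells, read out with a cell viability assay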
Description: SANGER: Inhibition of human NCI-H727 cell growth in a cell viability assay.

NY = format: functional, cell-based
Description: SANGER: Inhibition of human NY cell growth in a cell viability assay.

Panc1005 = format: functional, cell-based;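 note: growth inhibition of human PANC-10-05 cells, measured by a cell viability assay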
Description: SANGER: Inhibition of human PANC-10-05 cell growth in a cell viability assay.

RPMI-2650 = format: functional, cell-based
Description: SANGER: Inhibition of human RPMI-2650 cell growth in a cell viability assay.

SK-N-AS = format: functional, cell-based;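 note: growth inhibition of human SK-N-AS cells, measured with a cell viability assay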
Description: SANGER: Inhibition of human SK-N-AS cell growth in a cell viability assay.

SNU-423 = format: functional, cell-based
Description: SANGER: Inhibition of human SNU-423 cell growth in a cell viability assay.

SW1417 = format: functional, cell-based;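 note: growth inhibition of human SW1417 cells, read out with a cell viability assay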
Description: SANGER: Inhibition of human SW1417 cell growth in a cell viability assay.

SW626 = format: functional, cell-based;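 note: growth inhibition of SW626 cells, measured with a cell viability assay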
Description: SANGER: Inhibition of human SW626 cell growth in a cell viability assay.

SAOS-2 = format: functional, cell-based;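 note: growth inhibition of human Saos-2 cells determined by a cell viability assay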
Description: SANGER: Inhibition of human Saos-2 cell growth in a cell viability assay.

SiHa = format: functional, cell-based;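 note: Viability-based readout of growth inhibition in SiHa cells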
Description: SANGER: Inhibition of human SiHa cell growth in a cell viability assay.

T98G = format: functional, cell-based;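 note: growth inhibition of T98G cells, read out by a cell viability assay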
Description: SANGER: Inhibition of human T98G cell growth in a cell viability assay.

8305C = format: functional, cell-based
Description: SANGER: Inhibition of human 8305C cell growth in a cell viability assay.

A2780 = format: functional, cell-based;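 note: growth inhibition of A2780 cells, read out with a cell viability assay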
Description: SANGER: Inhibition of human A2780 cell growth in a cell viability assay.

ACHN = format: functional, cell-based;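 note: cell viability read-out used to gauge how strongly growth of human ACHN cells is suppressed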
Description: SANGER: Inhibition of human ACHN cell growth in a cell viability assay.

BFTC-909 = format: functional, cell-based
Description: SANGER: Inhibition of human BFTC-909 cell growth in a cell viability assay.

C3A = format: functional, cell-based;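 note: growth inhibition of C3A human cells, quantified with a cell viability readout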
Description: SANGER: Inhibition of human C3A cell growth in a cell viability assay.

CAL-12T = format: functional, cell-based;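 note: growth inhibition of human CAL-12T cells, read out with a cell viability assay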
Description: SANGER: Inhibition of human CAL-12T cell growth in a cell viability assay.

U-118-MG = format: functional, cell-based
Description: SANGER: Inhibition of human U-118-MG cell growth in a cell viability assay.

U2OS = format: functional, cell-based, U-2-OS;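 note: growth inhibition of human U-2-OS cells, determined with a cell viability assay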
Description: SANGER: Inhibition of human U-2-OS cell growth in a cell viability assay.

CAMA-1 = format: functional, cell-based;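 note: growth inhibition of CAMA-1 cells, read out with a cell viability assay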
Description: SANGER: Inhibition of human CAMA-1 cell growth in a cell viability assay.

CHL-1 = format: functional, cell-based;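 note: cell growth inhibition, read out with a cell viability assay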
Description: SANGER: Inhibition of human CHL-1 cell growth in a cell viability assay.

COLO-678 = format: functional, cell-based
Description: SANGER: Inhibition of human COLO-678 cell growth in a cell viability assay.

COLO-679 = format: functional, cell-based
Description: SANGER: Inhibition of human COLO-679 cell growth in a cell viability assay.

Which results are given for `NC(=O)Nc1cc(-c2cccc(F)c2)sc1C(=O)N[C@H]1CCCNC1` [AZD-7762]?
IC50 (COLO-792): > 2000 nM; IC50 (COR-L105): 222 nM; IC50 (ChaGo-K-1): 325 nM; IC50 (D-392MG): 456 nM; IC50 (DBTRG-05MG): > 2000 nM; IC50 (Detroit 562): 333 nM; IC50 (EGI-1): 1800 nM; IC50 (ESS-1): 164 nM; IC50 (FaDu): 412 nM; IC50 (G-402): 64.6 nM; IC50 (GAMG): 386 nM; IC50 (HCC1954): > 2000 nM; IC50 (HEC-1): 814 nM; IC50 (HOS): 880 nM; IC50 (HuP-T4): 469 nM; IC50 (JEG-3): > 2000 nM; IC50 (KYSE-450): 1050 nM; IC50 (M14): 145 nM; IC50 (MDA-MB-231): 1600 nM; IC50 (MDA-MB-415): > 2000 nM; IC50 (MHH-ES-1): > 2000 nM; IC50 (MKN-45): 280 nM; IC50 (MOLT-13): 463 nM; IC50 (NCI-H1437): > 2000 nM; IC50 (NCI-H1703): 6.43 nM; IC50 (NCI-H2030): 1020 nM; IC50 (NCI-H28): 297 nM; IC50 (NCI-H727): 698 nM; IC50 (NY): > 2000 nM; IC50 (Panc1005): > 2000 nM; IC50 (RPMI-2650): > 2000 nM; IC50 (SK-N-AS): 188 nM; IC50 (SNU-423): 535 nM; IC50 (SW1417): 736 nM; IC50 (SW626): 506 nM; IC50 (SAOS-2): 746 nM; IC50 (SiHa): 859 nM; IC50 (T98G): 246 nM; IC50 (8305C): 789 nM; IC50 (A2780): 432 nM; IC50 (ACHN): 134 nM; IC50 (BFTC-909): 588 nM; IC50 (C3A): > 2000 nM; IC50 (CAL-12T): 433 nM; IC50 (U-118-MG): > 2000 nM; IC50 (U2OS): 158 nM; IC50 (CAMA-1): > 2000 nM; IC50 (CHL-1): 526 nM; IC50 (COLO-678): > 2000 nM; IC50 (COLO-679): 90.9 nM
